According to paper PMC8286840, “Identifying SARS-CoV-2 antiviral compounds by screening for small molecule inhibitors of Nsp3 papain-like protease” (Biochemical Journal, 2021):
Where a name gives a salt, the structure may show the parent alone. Read-outs that look alike come from different tables or passages of the source.

Tests used:
[1] = target: T1, SARS-CoV-2 PLpro (nsp3 1564–1878) (Severe acute respiratory syndrome coronavirus 2, UniProt P0DTD1); test: biochemical; design: FRET-quenched peptide (Pro3) cleavage by PLpro, 10 min pre-incubation, slope over 20 min, normalised to no-compound control; details: read-out: % of control remaining
[2] = target: T1, SARS-CoV-2 PLpro (nsp3 1564–1878); test: biochemical; design: FRET-quenched peptide (Pro3) cleavage by PLpro, 10 min pre-incubation, slope over 20 min, normalised to no-compound control; details: read-out: % of control remaining; remark: listed apart in the source
Experimental: The plates were organized with columns 3–22 containing the compounds; the remaining columns were used for reaction controls including substrate only and substrate with enzyme but no compound (Figure 3Aii). The PLpro enzyme was pre-incubated with the compounds for 10 min, and then the reaction was initiated by the addition of substrate. […] We incubated the inhibitors with PLpro before the enzymatic reaction so that the slow-binding inhibitors will not be missed out [21]. […] Fluorescence was read on a Spark multimode microplate reader (Tecan) with an excitation wavelength at 330 nm and emission wavelength at 420 nm. […] An amount of 5 µl of the enzyme was pre-incubated with compounds for 10 min before the addition of 15 µl substrate. Fluorescence was monitored at 2 min for 20 min with 3 min intervals giving a total of seven readings.

Question: With `CCCCCCCC/C=C\CCCCCCCCCCCCC(=O)O` [14(Z)-Tricosenoic acid] as the compound, how does the remaining activity at 3.75 µM ([1]; Well no.=4498, high concentration screen) read?
Answer: 93.7%

Question: What about the remaining activity at 1.25 µM ([2]; Well no.=4498, low concentration screen) of the same compound?
Answer: 99.3%

Question: Which results are given for `CN(C)CCc1c[nH]c2ccc(C[C@H]3COC(=O)N3)cc12` [Zolmitriptan]?
Answer: remaining activity at 3.75 µM ([1]; Well no.=1885, high concentration screen): 97.6%; remaining activity at 3.75 µM ([1]; Well no.=6507, high concentration screen): 98.2%; remaining activity at 1.25 µM ([2]; Well no.=1885, low concentration screen): 98%; remaining activity at 1.25 µM ([2]; Well no.=6507, low concentration screen): 98.3%

Question: `Cc1cn([C@H]2C[C@H](O)[C@@H](CO)O2)c(=O)nc1N` [5-Methyl-2'-deoxycytidine] was tested. Which remaining activity at 3.75 µM ([1]; Well no.=7493, high concentration screen) did it give?
Answer: 105%

Question: What about the remaining activity at 3.75 µM ([1]; Well no.=7720, high concentration screen) of the same compound?
Answer: 102%

Question: And the remaining activity at 1.25 µM ([2]; Well no.=7493, low concentration screen)?
Answer: 104%

Question: And the remaining activity at 1.25 µM ([2]; Well no.=7720, low concentration screen)?
Answer: 98.8%

Question: How did the remaining activity at 3.75 µM ([1]; Well no.=3437, high concentration screen) turn out when `CC[C@H]1[C@@H]2C[C@H]3[C@@H]4N(C)c5ccccc5[C@]45C[C@@H]([C@H]2[C@H]5O)N3[C@@H]1O` [Ajmaline] was run?
Answer: 98.2%

Question: What about the remaining activity at 1.25 µM ([2]; Well no.=3437, low concentration screen) of the same compound?
Answer: 98.9%

Question: For `NC(N)=Nc1nc(CSCCN/C=N/S(=O)(=O)c2ccc(Br)cc2)cs1` [Ebrotidine], which remaining activity at 3.75 µM ([1]; Well no.=7003, high concentration screen) is on record?
Answer: 103%

Question: And the remaining activity at 1.25 µM ([2]; Well no.=7003, low concentration screen)?
Answer: 106%

Question: With `Cc1[nH]c(/C=C2\C(=O)Nc3ccccc32)c(C)c1CCC(=O)O` [TSU-68 (SU6668)] as the compound, how does the remaining activity at 3.75 µM ([1]; Well no.=4899, high concentration screen) read?
Answer: 95.8%

Question: And the remaining activity at 1.25 µM ([2]; Well no.=4899, low concentration screen)?
Answer: 99.4%

Question: Which results are given for `Cc1cc(Cl)ccc1OCCCC(=O)NO` [Droxinostat]?
Answer: remaining activity at 3.75 µM ([1]; Well no.=5239, high concentration screen): 96.2%; remaining activity at 1.25 µM ([2]; Well no.=5239, low concentration screen): 101%

Question: For `O=C(NOCC1CC1)c1ccc(F)c(F)c1Nc1ccc(I)cc1Cl` [CI-1040], which remaining activity at 3.75 µM ([1]; Well no.=2741, high concentration screen) is on record?
Answer: 102%

Question: What about the remaining activity at 1.25 µM ([2]; Well no.=2741, low concentration screen) of the same compound?
Answer: 100%

Question: `CCCCCCCCCCCCCCC[C@H](O)[C@H](N)CO` (racemic) [DL-erythro-Dihydrosphingosine] was tested. Which remaining activity at 3.75 µM ([1]; Well no.=628, high concentration screen) did it give?
Answer: 93.6%

Question: What about the remaining activity at 1.25 µM ([2]; Well no.=628, low concentration screen) of the same compound?
Answer: 95.5%

Question: How did the remaining activity at 3.75 µM ([1]; Well no.=2989, high concentration screen) turn out when `CN(C)CCOc1cc(-c2cn[nH]c2)ccc1NC(=O)C1COc2ccccc2O1` (centres unmarked) [SR3677] was run?
Answer: 98.3%

Question: What about the remaining activity at 1.25 µM ([2]; Well no.=2989, low concentration screen) of the same compound?
Answer: 97.2%

Question: How did the remaining activity at 3.75 µM ([1]; Well no.=1352, high concentration screen) turn out when `Cc1nc2sccn2c(=O)c1CCN1CCC(=C(c2ccc(F)cc2)c2ccc(F)cc2)CC1` [Ritanserin] was run?
Answer: 96.7%

Question: What about the remaining activity at 1.25 µM ([2]; Well no.=1352, low concentration screen) of the same compound?
Answer: 94.6%

Question: With `CCC1(c2ccccc2)NC(=O)N(C)C1=O` (centres unmarked) [Mephenytoin] as the compound, how does the remaining activity at 3.75 µM ([1]; Well no.=1774, high concentration screen) read?
Answer: 99.4%

Question: What about the remaining activity at 1.25 µM ([2]; Well no.=1774, low concentration screen) of the same compound?
Answer: 99.1%

Question: What does the source list for `CCCCCCCC/C=C/CCCCCCCCCCCCC(=O)O` [14(E)-Tricosenoic acid]?
Answer: remaining activity at 3.75 µM ([1]; Well no.=4500, high concentration screen): 94.8%; remaining activity at 1.25 µM ([2]; Well no.=4500, low concentration screen): 95.4%

Question: For `CCCc1ncc(C[n+]2ccccc2C)c(N)n1` [Amprolium HCl], which remaining activity at 3.75 µM ([1]; Well no.=8588, high concentration screen) is on record?
Answer: 108%

Question: What about the remaining activity at 1.25 µM ([2]; Well no.=8588, low concentration screen) of the same compound?
Answer: 106%

Question: What does the source list for `Cc1cc(Nc2cc(CN3CCOCC3)c3nc(C)c(Cc4ccc(Cl)cc4F)n3n2)n[nH]1` [LY2784544]?
Answer: remaining activity at 3.75 µM ([1]; Well no.=4806, high concentration screen): 101%; remaining activity at 1.25 µM ([2]; Well no.=4806, low concentration screen): 98.3%

Question: What does the source list for `CCc1cc(C(N)=S)ccn1` [Ethionamide]?
Answer: remaining activity at 3.75 µM ([1]; Well no.=5347, high concentration screen): 95.4%; remaining activity at 1.25 µM ([2]; Well no.=5347, low concentration screen): 96.4%

Question: With `Cc1[nH]c2ccccc2c1CC(=O)N[C@@H](Cc1ccccc1)C(=O)N(C)c1ccccc1` [(S)-N-methyl-2-(2-(2-methyl-1H-indol-3-yl)acetamido)-N,3-diphenylpropanamide] as the compound, how does the remaining activity at 3.75 µM ([1]; Well no.=5917, high concentration screen) read?
Answer: 103%

Question: What about the remaining activity at 1.25 µM ([2]; Well no.=5917, low concentration screen) of the same compound?
Answer: 106%

Question: `CN(C)c1ccc(C2Nc3ccc4ccccc4c3C3=C2C(=O)CC(C)(C)C3)cc1Br` (centres unmarked) [5-[3-bromo-4-(dimethylamino)phenyl]-2,2-dimethyl-2,3,5,6-tetrahydrobenzo[a]phenanthridin-4(1H)-one] was tested. Which remaining activity at 3.75 µM ([1]; Well no.=5515, high concentration screen) did it give?
Answer: 106%

Question: And the remaining activity at 1.25 µM ([2]; Well no.=5515, low concentration screen)?
Answer: 106%

Question: Which remaining activity at 3.75 µM ([1]; Well no.=3303, high concentration screen) does the source give for `COC1=CC(=O)O[C@@H](CCc2ccc3c(c2)OCO3)C1` [Dihydromethysticin] here?
Answer: 102%

Question: And the remaining activity at 1.25 µM ([2]; Well no.=3303, low concentration screen)?
Answer: 100%

Question: With `CN1C(C(=O)Nc2ccccn2)=C(O)c2sccc2S1(=O)=O` [Tenoxicam] as the compound, how does the remaining activity at 3.75 µM ([1]; Well no.=2299, high concentration screen) read?
Answer: 101%

Question: What about the remaining activity at 1.25 µM ([2]; Well no.=2299, low concentration screen) of the same compound?
Answer: 98.3%

Question: Which remaining activity at 3.75 µM ([1]; Well no.=3209, high concentration screen) does the source give for `COc1cc(C(=O)O[C@H]2C[C@@H]3CC[C@]2(C)C3(C)C)ccc1O` [Tschimganine] here?
Answer: 104%

Question: And the remaining activity at 1.25 µM ([2]; Well no.=3209, low concentration screen)?
Answer: 104%

Question: What does the source list for `O=c1cc(CN2CCOCC2)occ1OCCCCCSc1ccnc2cc(C(F)(F)F)ccc12` [EHT 1864]?
Answer: remaining activity at 3.75 µM ([1]; Well no.=8435, high concentration screen): 90.8%; remaining activity at 1.25 µM ([2]; Well no.=8435, low concentration screen): 93.5%

Question: How did the remaining activity at 3.75 µM ([1]; Well no.=7203, high concentration screen) turn out when `O=c1[nH]c(=O)c2nc[nH]c2[nH]1` [Xanthine] was run?
Answer: 96.5%

Question: What about the remaining activity at 1.25 µM ([2]; Well no.=7203, low concentration screen) of the same compound?
Answer: 97.4%

Question: How did the remaining activity at 3.75 µM ([1]; Well no.=8716, high concentration screen) turn out when `CC(=O)N[C@@H](CC(C)C)C(=O)N[C@@H](CC(C)C)C(=O)N[C@H](C=O)CCCN=C(N)N` [Leupeptin Hemisulfate] was run?
Answer: 91%

Question: And the remaining activity at 1.25 µM ([2]; Well no.=8716, low concentration screen)?
Answer: 92%

Question: What does the source list for `N#Cc1cnc2cnc(NCc3cccnc3)cc2c1Nc1ccc(F)c(Cl)c1` [Tpl2 Kinase Inhibitor]?
Answer: remaining activity at 3.75 µM ([1]; Well no.=2662, high concentration screen): 89.7%; remaining activity at 1.25 µM ([2]; Well no.=2662, low concentration screen): 92.4%

Question: For `Oc1ccc2c3c1O[C@H]1c4oc5ccccc5c4C[C@@]4(O)[C@@H](C2)N(CC2CC2)CC[C@]314` [Naltriben methanesulfonate], which remaining activity at 3.75 µM ([1]; Well no.=1036, high concentration screen) is on record?
Answer: 97.4%

Question: And the remaining activity at 1.25 µM ([2]; Well no.=1036, low concentration screen)?
Answer: 92.8%

Question: With `CN(C)S(=O)(=O)c1ccc2c(c1)/C(=C/c1cc3c([nH]1)CCCC3)C(=O)N2` [SU6656] as the compound, how does the remaining activity at 3.75 µM ([1]; Well no.=2500, high concentration screen) read?
Answer: 99.1%

Question: What about the remaining activity at 3.75 µM ([1]; Well no.=8074, high concentration screen) of the same compound?
Answer: 98.5%

Question: And the remaining activity at 1.25 µM ([2]; Well no.=2500, low concentration screen)?
Answer: 94.8%

Question: What about the remaining activity at 1.25 µM ([2]; Well no.=8074, low concentration screen) of the same compound?
Answer: 101%

Question: What does the source list for `NC[C@@H]1O[C@H](O[C@H]2[C@@H](O)[C@H](O[C@@H]3[C@@H](O)[C@H](N)C[C@H](N)[C@H]3O[C@H]3O[C@H](CN)[C@@H](O)[C@H](O)[C@H]3N)O[C@@H]2CO)[C@H](N)[C@@H](O)[C@@H]1O` [Neomycin]?
Answer: remaining activity at 3.75 µM ([1]; Well no.=1911, high concentration screen): 94.6%; remaining activity at 3.75 µM ([1]; Well no.=3419, high concentration screen): 90%; remaining activity at 1.25 µM ([2]; Well no.=1911, low concentration screen): 94.3%; remaining activity at 1.25 µM ([2]; Well no.=3419, low concentration screen): 87.7%

Question: How did the remaining activity at 3.75 µM [1] turn out when `CN1C(=O)C(Cc2ccc3ccccc3c2)N=C(c2ccc(O)cc2)c2cc(Cl)ccc21` (centres unmarked) [Bz 423] was run?
Answer: 93.6%

Question: What about the remaining activity at 1.25 µM [2] of the same compound?
Answer: 96.5%

Question: What does the source list for `C/C=C(/C)C(=O)O[C@H]1CC(C)=CC(=O)[C@@]2(C)CC[C@@](O)(C(C)C)[C@H]12` [Lapidin]?
Answer: remaining activity at 3.75 µM ([1]; Well no.=3159, high concentration screen): 105%; remaining activity at 1.25 µM ([2]; Well no.=3159, low concentration screen): 105%

Question: Which results are given for `Nc1ccn([C@H]2CC[C@@H](CO)O2)c(=O)n1` [Zalcitabine]?
Answer: remaining activity at 3.75 µM ([1]; Well no.=7856, high concentration screen): 98.9%; remaining activity at 1.25 µM ([2]; Well no.=7856, low concentration screen): 92.9%

Question: Which remaining activity at 3.75 µM ([1]; Well no.=1171, high concentration screen) does the source give for `Cc1cccc(C(=O)NCN2CCN(c3ccccc3C#N)CC2)c1` [PD 168,077 maleate] here?
Answer: 107%

Question: And the remaining activity at 1.25 µM ([2]; Well no.=1171, low concentration screen)?
Answer: 106%

Question: Which remaining activity at 3.75 µM ([1]; Well no.=6517, high concentration screen) does the source give for `NC[C@H](O)c1ccc(O)c(O)c1` [Norepinephrine (bitartrate monohydrate)] here?
Answer: 98.7%

Question: And the remaining activity at 1.25 µM ([2]; Well no.=6517, low concentration screen)?
Answer: 101%
